Measurements as given in patent US20260116910A1, “POLYCYCLIC COMPOUNDS AND METHODS THEREOF” (HEPAITECH (BEIJING) BIOPHARMA TECHNOLOGY CO., LTD., priority 2021, published 2026).
Several values for one entry are separate records, joined by “and”; a condition that tells them apart may be missing. Equal entries are not always repeated. Where two headings read alike, the source gives them in different places.

Assays:
[1] = biological target: T1, human FXR (NR1H4) (Homo sapiens, UniProt Q96RI1); experiment: Human FXR (NR1H4) agonist assessment, FXRE-NanoLuc reporter in HEK293T cells; assay type: cell-based; conditions: for EC50: read-out: EC50
T1 sequence (Q96RI1 1-476 isoform Q96RI1-1): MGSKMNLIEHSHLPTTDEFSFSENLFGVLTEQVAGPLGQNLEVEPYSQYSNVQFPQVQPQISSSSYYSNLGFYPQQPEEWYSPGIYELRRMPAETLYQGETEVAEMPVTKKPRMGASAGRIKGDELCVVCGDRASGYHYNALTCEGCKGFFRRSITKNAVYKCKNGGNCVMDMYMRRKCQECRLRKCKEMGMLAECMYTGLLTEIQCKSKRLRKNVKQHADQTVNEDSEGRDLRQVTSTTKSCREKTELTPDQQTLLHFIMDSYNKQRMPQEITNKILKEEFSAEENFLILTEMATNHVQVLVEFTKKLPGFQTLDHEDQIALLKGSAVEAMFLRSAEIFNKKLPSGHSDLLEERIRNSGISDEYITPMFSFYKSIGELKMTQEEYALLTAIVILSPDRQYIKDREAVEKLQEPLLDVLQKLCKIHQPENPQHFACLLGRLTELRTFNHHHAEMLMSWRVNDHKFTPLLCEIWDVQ
Method in brief: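 Read-out was NanoLuc luminescence in culture medium, measured 5 min after adding coelenterazine. Cells were HEK293T stably carrying human FXR and an FXRE reporter, exposed to compound for 24 hr at 37 °C. Vehicle was 0.01% DMSO. EC50 was obtained from sigmoid fits of gradient dilutions.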

[2] = biological target: MRGPRX4 (Homo sapiens, UniProt Q96LA9); experiment: MRGPRX4 activation, Fluo-8 Ca2+ FLIPR assay in HEK293T cells stably expressing MRGPRX4; assay type: cell-based; set-up: key to MRGPRX4 activation, Average / MRGPRX4 activation, Ave.: fluorescence change dF/F0; conditions: for EC50: MRGPRX4 activation, Ca2+ fluorescence, no activation in tested range reported as III, read-out: Activity (EC50 μM)
Method in brief: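 Response measured as dF/F0: 30 s baseline, then 150 s after compound addition on FLIPR Tetra, in HHBS after 40-60 min room-temperature loading with 2 μM Fluo-8 AM.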

[3] = FXR activation, HEK293T FXRE-NanoLuc reporter, 24 hr

Sequence of MRGPRX4 (Q96LA9 whole entry): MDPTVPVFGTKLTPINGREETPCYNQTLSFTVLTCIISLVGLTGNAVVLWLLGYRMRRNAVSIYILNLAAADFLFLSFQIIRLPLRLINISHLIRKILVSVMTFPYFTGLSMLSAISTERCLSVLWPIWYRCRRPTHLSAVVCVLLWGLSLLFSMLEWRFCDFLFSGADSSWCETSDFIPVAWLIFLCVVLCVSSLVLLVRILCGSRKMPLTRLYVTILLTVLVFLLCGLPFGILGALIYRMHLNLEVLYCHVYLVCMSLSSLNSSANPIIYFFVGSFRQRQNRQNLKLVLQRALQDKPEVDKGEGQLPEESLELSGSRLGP

| Structure (SMILES) | Efficacy (maximum measured induction of NanoLuc, normalized to CDCA set as 100%) [1, 3] | EC50 [1, 3] [nM] | MRGPRX4 activation, Average ([2]; E3-9, Conc. (Log[M]) −4.0) | MRGPRX4 activation, Average ([2]; E3-9, Conc. (Log[M]) −4.5) | MRGPRX4 activation, Average ([2]; E3-9, Conc. (Log[M]) −5.0) | MRGPRX4 activation, Average ([2]; E3-9, Conc. (Log[M]) −5.4) | MRGPRX4 activation, Average ([2]; E3-9, Conc. (Log[M]) −5.9) | MRGPRX4 activation, Average ([2]; E3-9, Conc. (Log[M]) −6.4) | MRGPRX4 activation, Average ([2]; E3-9, Conc. (Log[M]) −6.9) | MRGPRX4 activation, Average ([2]; E3-9, Conc. (Log[M]) −7.3) | MRGPRX4 activation, Average ([2]; E3-9, Conc. (Log[M]) −7.8) | MRGPRX4 activation, Average ([2]; E3-9, Conc. (Log[M]) −8.3) | EC50 [2] [µM] | MRGPRX4 activation, fluorescence change (dF/F0), Average ([2]; Conc. (Log[M]) −5) | other results |
| --- | --- | --- | --- | --- | --- | --- | --- | --- | --- | --- | --- | --- | --- | --- | --- |
| CC[C@H]1[C@@H](O)[C@@H]2[C@H](CC[C@]3(C)[C@@H]([C@H](C)CCNC(=O)NS(=O)(=O)c4ccc(N5CCCCC5)nc4)CC[C@@H]23)[C@@]2(C)CCCC[C@@H]12 [5-30] | A (efficacy >400%) | < 1000 | 0.014 | 0.018 | 0.014 | 0.027 | 0.018 | 0.023 | 0.021 | 0.025 | 0.018 | 0.028 | > 100 |  |  |
| CC[C@H]1[C@@H](O)[C@@H]2[C@H](CC[C@]3(C)[C@@H]([C@H](C)CCNC(=O)NS(=O)(=O)c4ccc5c(c4)CCC(C)(C)O5)CC[C@@H]23)[C@@]2(C)CCCC[C@@H]12 [5-29] | A (efficacy >400%) | < 1000 | 0.014 | 0.014 | 0.010 | 0.018 | 0.016 | 0.018 | 0.018 | 0.016 | 0.020 | 0.018 | > 100 |  |  |
| CC[C@H]1[C@@H](O)[C@@H]2[C@H](CC[C@]3(C)[C@@H]([C@H](C)COC(=O)NS(=O)(=O)c4ccc(C(C)(C)CF)cc4)CC[C@@H]23)[C@@]2(C)CCCC[C@@H]12 [18-1] | A (efficacy >400%) | < 1000 | 0.168 | 0.003 | 0.008 | 0.019 | 0.018 |  |  |  |  |  | > 100 |  | Activation (%) ([2]; second E3-8-1, 4.6 nM, n = 1): 3.17%; Activation (%) ([2]; second E3-8-1, 4.6 nM, n = 2): 2.86%; Activation (%) ([2]; second E3-8-1, 14 nM, n = 1): 2.86%; Activation (%) ([2]; second E3-8-1, 14 nM, n = 2): 3.17%; Activation (%) ([2]; second E3-8-1, 41 nM, n = 1): 2.55%; Activation (%) ([2]; second E3-8-1, 41 nM, n = 2): 3.48%; Activation (%) ([2]; second E3-8-1, 123 nM, n = 1): 2.55%; Activation (%) ([2]; second E3-8-1, 123 nM, n = 2): 3.17%; Activation (%) ([2]; second E3-8-1, 370 nM, n = 1): 3.17%; Activation (%) ([2]; second E3-8-1, 370 nM, n = 2): 3.48%; Activation (%) ([2]; second E3-8-1, 1111 nM, n = 1): 2.86%; Activation (%) ([2]; second E3-8-1, 1111 nM, n = 2): 2.86%; Activation (%) ([2]; second E3-8-1, 3333 nM, n = 1): 1.93%; Activation (%) ([2]; second E3-8-1, 3333 nM, n = 2): 2.55%; Activation (%) ([2]; second E3-8-1, 10000 nM, n = 1): 2.86%; Activation (%) ([2]; second E3-8-1, 10000 nM, n = 2): 3.79%; Activation (%) ([2]; second E3-8-1, 30000 nM, n = 1): 2.24%; Activation (%) ([2]; second E3-8-1, 30000 nM, n = 2): 2.24% |
| CC[C@H]1[C@@H](O)[C@@H]2[C@H](CC[C@]3(C)[C@@H]([C@H](C)CCC(=O)NS(=O)(=O)C(C)(C)C)CC[C@@H]23)[C@@]2(C)CCCC[C@@H]12 [4-1] | B (300%<efficacy <=400%) | < 1000 |  |  |  |  |  |  |  |  |  |  | > 100 | −0.037 | MRGPRX4 activation, fluorescence change (dF/F0), Average ([2]; Conc. (Log[M]) −4): 0.057; MRGPRX4 activation, fluorescence change (dF/F0), Average ([2]; Conc. (Log[M]) −4.5): 0.035; MRGPRX4 activation, fluorescence change (dF/F0), Average ([2]; Conc. (Log[M]) −5.5): −0.013; MRGPRX4 activation, fluorescence change (dF/F0), Average ([2]; Conc. (Log[M]) −6): 0.002; MRGPRX4 activation, fluorescence change (dF/F0), Average ([2]; Conc. (Log[M]) −7): 0.009; MRGPRX4 activation, fluorescence change (dF/F0), Average ([2]; Conc. (Log[M]) −8): 0.004; MRGPRX4 activation, fluorescence change (dF/F0), Average ([2]; Conc. (Log[M]) −9): 0.005 |
| CC[C@H]1[C@@H](OC(=O)c2cccc(I)c2)[C@H]2[C@@H]3[C@@H](O)C=C([C@H](C)CCC(=O)OC)[C@@]3(C)CC[C@@H]2[C@@]2(C)CCCC[C@@H]12 [3-3] | C (100%<efficacy <=300%) | > 10000 |  |  |  |  |  |  |  |  |  |  | > 100 | −0.045 | MRGPRX4 activation, fluorescence change (dF/F0), Average ([2]; Conc. (Log[M]) −4): 0.041; MRGPRX4 activation, fluorescence change (dF/F0), Average ([2]; Conc. (Log[M]) −4.5): 0.052; MRGPRX4 activation, fluorescence change (dF/F0), Average ([2]; Conc. (Log[M]) −5.5): −0.013; MRGPRX4 activation, fluorescence change (dF/F0), Average ([2]; Conc. (Log[M]) −6): −0.015; MRGPRX4 activation, fluorescence change (dF/F0), Average ([2]; Conc. (Log[M]) −7): −0.015; MRGPRX4 activation, fluorescence change (dF/F0), Average ([2]; Conc. (Log[M]) −8): −0.031; MRGPRX4 activation, fluorescence change (dF/F0), Average ([2]; Conc. (Log[M]) −9): −0.014 |
| [2H]C1([2H])CC[C@@]2(C)[C@@H](C1)[C@@H](CC)[C@@H](O)[C@@H]1[C@@H]2CC[C@]2(C)[C@@H]([C@H](C)CCNC(=S)NS(=O)(=O)c3cccs3)CC[C@@H]12 [14-4] |  | < 1000 | 0.061 | 0.020 | 0.013 | 0.018 | 0.013 | 0.020 | 0.015 | 0.015 | 0.008 | 0.015 | > 100 |  | Efficacy (maximum measured induction of NanoLuc, normalized to CDCA set as 100%) [1]: C (key: A: efficacy >400%; B: 300%<efficacy <=400%; C: 100%<efficacy <=300%; D: efficacy <=100%) |
| CC[C@H]1[C@@H](O)[C@@H]2[C@H](CC[C@]3(C)[C@@H]([C@H](C)CCNC(=O)C(=O)NS(=O)(=O)c4cc(F)ccc4F)CC[C@@H]23)[C@@]2(C)CCCC[C@@H]12 [8-5] | C (100%<efficacy <=300%) | < 1000 | 0.030 | 0.016 | 0.018 | 0.018 | 0.018 | 0.016 | 0.020 | 0.016 | 0.011 | 0.011 | > 100 |  |  |
| CCCCS(=O)(=O)NC(=O)NCC[C@@H](C)[C@H]1CC[C@H]2[C@@H]3[C@H](O)[C@H](CC)[C@@H]4CCCC[C@]4(C)[C@H]3CC[C@]12C [5-14] | C (100%<efficacy <=300%) | < 1000 |  |  |  |  |  |  |  |  |  |  | > 100 |  | MRGPRX4 activation, Average ([2]; E3-6-2, 1st of 6 concentration columns (head not in rows shown)): 0.070; MRGPRX4 activation, Average ([2]; E3-6-2, 3rd of 6 concentration columns (head not in rows shown)): 0.017; MRGPRX4 activation, Average ([2]; E3-6-2, 6th of 6 concentration columns (head not in rows shown)): 0.017; MRGPRX4 activation, Average ([2]; E3-6-2, concentration not given): 0.017 |
| CO/N=C1\C[C@@H]2C[C@H](OC(C)=O)CC[C@]2(C)[C@H]2CC[C@]3(C)[C@@H]([C@H](C)CCC(=O)OC)CC[C@H]3[C@H]12 [1-2] | D (efficacy <=100%) | > 10000 |  |  |  |  |  |  |  |  |  |  | 50 to 100 | 0.027 and 0.022 |  |
| CC[C@H]1[C@@H](O)[C@@H]2[C@H](CC[C@]3(C)[C@@H]([C@H](C)CCNC(=O)NS(=O)(=O)C4CCC(C)(C)CC4)CC[C@@H]23)[C@@]2(C)CCCC[C@@H]12 [5-5] | C (100%<efficacy <=300%) | < 1000 |  |  |  |  |  |  |  |  |  |  | > 100 | 0.017 | MRGPRX4 activation, fluorescence change (dF/F0), Average ([2]; Conc. (Log[M]) −4): 0.083; MRGPRX4 activation, fluorescence change (dF/F0), Average ([2]; Conc. (Log[M]) −4.5): 0.033; MRGPRX4 activation, fluorescence change (dF/F0), Average ([2]; Conc. (Log[M]) −5.5): 0.020; MRGPRX4 activation, fluorescence change (dF/F0), Average ([2]; Conc. (Log[M]) −6): 0.027; MRGPRX4 activation, fluorescence change (dF/F0), Average ([2]; Conc. (Log[M]) −7): 0.060 |
| CC[C@H]1[C@@H](O)[C@@H]2[C@H](CC[C@]3(C)[C@@H]([C@H](C)CCNC(=O)NS(=O)(=O)c4ccc(C(C)(C)CF)cc4)CC[C@@H]23)[C@@]2(C)CCC(F)(F)C[C@@H]12 [10-1] | B (300%<efficacy <=400%) | < 1000 | 0.025 | 0.016 | 0.021 | 0.018 | 0.019 | 0.016 | 0.018 | 0.016 | 0.008 | 0.010 | > 100 |  |  |
